Experimental data taken from paper PMC6639057 (Investigational new drugs, 2018).

Test system: patients with advanced solid tumors
Assay: Adverse events
[1] = escalation 35 mg + G-CSF (n = 3)
[2] = escalation 40 mg + G-CSF (n = 11)
[3] = escalation 50 mg + G-CSF (n = 4)
[4] = escalation 1, 2, 4, 8 mg (n = 4)
[5] = expansion 40 mg + G-CSF, CRPC (n = 12)
[6] = expansion 40 mg + G-CSF, OC (n = 29)
[7] = expansion 40 mg + G-CSF, TNBC (n = 14)

## Cc1csc(-c2nnc(Nc3ccc(Oc4ncccc4-c4ccnc(N)n4)cc3)c3ccccc23)c1 [AMG 900]
[1]
  All treatment-related AEs: 3 (100) n (%)
  Fatal AEs: 0 n (%)
  Grade ≥ 3 AEs: 2 (67) n (%)
  Grade ≥ 3 treatment-related AEs: 2 (67) n (%)
  Grade ≥ 3 treatment-related AEs: Anemia: 0 n (%)
  Grade ≥ 3 treatment-related AEs: Diarrhea: 0 n (%)
  Grade ≥ 3 treatment-related AEs: Fatigue: 0 n (%)
  Grade ≥ 3 treatment-related AEs: Febrile neutropenia: 0 n (%)
  Grade ≥ 3 treatment-related AEs: Hemoglobin decreased: 0 n (%)
  Grade ≥ 3 treatment-related AEs: Leukopenia: 1 (33) n (%)
  Grade ≥ 3 treatment-related AEs: Lymphopenia: 0 n (%)
  Grade ≥ 3 treatment-related AEs: Nausea: 0 n (%)
  Grade ≥ 3 treatment-related AEs: Neutropenia: 1 (33) n (%)
  Grade ≥ 3 treatment-related AEs: Thrombocytopenia: 0 n (%)
  Grade ≥ 3 treatment-related AEs: Vomiting: 1 (33) n (%)
  Grade ≥ 3 treatment-related AEs: White blood cell count decreased: 0 n (%)
  Grade ≥ 4 AEs: 1 (33) n (%)
  Serious AEs: 1 (33) n (%)
[2]
  AEs leading to discontinuation of AMG 900: 2 (18) n (%)
  All treatment-emergent AEs: 11 (100) n (%)
  All treatment-related AEs: 10 (91) n (%)
  Fatal AEs: 0 n (%)
  Grade ≥ 3 AEs: 8 (73) n (%)
  Grade ≥ 3 treatment-related AEs: 6 (55) n (%)
  Grade ≥ 3 treatment-related AEs: Anemia: 0 n (%)
  Grade ≥ 3 treatment-related AEs: Diarrhea: 2 (18) n (%)
  Grade ≥ 3 treatment-related AEs: Fatigue: 0 n (%)
  Grade ≥ 3 treatment-related AEs: Febrile neutropenia: 2 (18) n (%)
  Grade ≥ 3 treatment-related AEs: Hemoglobin decreased: 0 n (%)
  Grade ≥ 3 treatment-related AEs: Leukopenia: 1 (9) n (%)
  Grade ≥ 3 treatment-related AEs: Lymphopenia: 1 (9) n (%)
  Grade ≥ 3 treatment-related AEs: Nausea: 0 n (%)
  Grade ≥ 3 treatment-related AEs: Neutropenia: 5 (46) n (%)
  Grade ≥ 3 treatment-related AEs: Thrombocytopenia: 1 (9) n (%)
  Grade ≥ 3 treatment-related AEs: Vomiting: 0 n (%)
  Grade ≥ 3 treatment-related AEs: White blood cell count decreased: 0 n (%)
  Grade ≥ 4 AEs: 4 (36) n (%)
  Serious AEs: 3 (27) n (%)
[3]
  AEs leading to discontinuation of AMG 900: 2 (50) n (%)
  All treatment-emergent AEs: 4 (100) n (%)
  All treatment-related AEs: 4 (100) n (%)
  Fatal AEs: 1 (25) n (%)
  Grade ≥ 3 AEs: 3 (75) n (%)
  Grade ≥ 3 treatment-related AEs: 3 (75) n (%)
  Grade ≥ 3 treatment-related AEs: Anemia: 1 (25) n (%)
  Grade ≥ 3 treatment-related AEs: Diarrhea: 0 n (%)
  Grade ≥ 3 treatment-related AEs: Fatigue: 2 (50) n (%)
  Grade ≥ 3 treatment-related AEs: Febrile neutropenia: 1 (25) n (%)
  Grade ≥ 3 treatment-related AEs: Hemoglobin decreased: 0 n (%)
  Grade ≥ 3 treatment-related AEs: Leukopenia: 1 (25) n (%)
  Grade ≥ 3 treatment-related AEs: Lymphopenia: 0 n (%)
  Grade ≥ 3 treatment-related AEs: Nausea: 0 n (%)
  Grade ≥ 3 treatment-related AEs: Neutropenia: 1 (25) n (%)
  Grade ≥ 3 treatment-related AEs: Thrombocytopenia: 1 (25) n (%)
  Grade ≥ 3 treatment-related AEs: Vomiting: 0 n (%)
  Grade ≥ 3 treatment-related AEs: White blood cell count decreased: 0 n (%)
  Grade ≥ 4 AEs: 2 (50) n (%)
  Serious AEs: 2 (50) n (%)
[4]
  AEs leading to discontinuation of AMG 900: 0 n (%)
  All treatment-emergent AEs: 4 (100) n (%)
  All treatment-related AEs: 3 (75) n (%)
  Fatal AEs: 0 n (%)
  Grade ≥ 3 AEs: 1 (25) n (%)
  Grade ≥ 3 treatment-related AEs: 1 (25) n (%)
  Grade ≥ 3 treatment-related AEs: Anemia: 1 (25) n (%)
  Grade ≥ 3 treatment-related AEs: Diarrhea: 0 n (%)
  Grade ≥ 3 treatment-related AEs: Fatigue: 0 n (%)
  Grade ≥ 3 treatment-related AEs: Febrile neutropenia: 0 n (%)
  Grade ≥ 3 treatment-related AEs: Hemoglobin decreased: 0 n (%)
  Grade ≥ 3 treatment-related AEs: Leukopenia: 0 n (%)
  Grade ≥ 3 treatment-related AEs: Lymphopenia: 0 n (%)
  Grade ≥ 3 treatment-related AEs: Nausea: 0 n (%)
  Grade ≥ 3 treatment-related AEs: Neutropenia: 0 n (%)
  Grade ≥ 3 treatment-related AEs: Thrombocytopenia: 0 n (%)
  Grade ≥ 3 treatment-related AEs: Vomiting: 0 n (%)
  Grade ≥ 3 treatment-related AEs: White blood cell count decreased: 0 n (%)
  Grade ≥ 4 AEs: 0 n (%)
  Serious AEs: 0 n (%)
[5]
  AEs leading to discontinuation of AMG 900: 3 (25) n (%)
  All treatment-emergent AEs: 12 (100) n (%)
  All treatment-related AEs: 12 (100) n (%)
  Fatal AEs: 0 n (%)
  Grade ≥ 3 AEs: 9 (75) n (%)
  Grade ≥ 3 treatment-related AEs: 6 (50) n (%)
  Grade ≥ 3 treatment-related AEs: Anemia: 2 (17) n (%)
  Grade ≥ 3 treatment-related AEs: Diarrhea: 0 n (%)
  Grade ≥ 3 treatment-related AEs: Fatigue: 2 (17) n (%)
  Grade ≥ 3 treatment-related AEs: Febrile neutropenia: 0 n (%)
  Grade ≥ 3 treatment-related AEs: Hemoglobin decreased: 1 (8) n (%)
  Grade ≥ 3 treatment-related AEs: Leukopenia: 0 n (%)
  Grade ≥ 3 treatment-related AEs: Lymphopenia: 1 (8) n (%)
  Grade ≥ 3 treatment-related AEs: Nausea: 2 (17) n (%)
  Grade ≥ 3 treatment-related AEs: Neutropenia: 3 (25) n (%)
  Grade ≥ 3 treatment-related AEs: Thrombocytopenia: 1 (8) n (%)
  Grade ≥ 3 treatment-related AEs: Vomiting: 0 n (%)
  Grade ≥ 3 treatment-related AEs: White blood cell count decreased: 0 n (%)
  Grade ≥ 4 AEs: 2 (17) n (%)
  Serious AEs: 4 (33) n (%)
[6]
  AEs leading to discontinuation of AMG 900: 5 (17) n (%)
  All treatment-emergent AEs: 29 (100) n (%)
  All treatment-related AEs: 28 (97) n (%)
  Fatal AEs: 0 n (%)
  Grade ≥ 3 AEs: 25 (86) n (%)
  Grade ≥ 3 treatment-related AEs: 22 (76) n (%)
  Grade ≥ 3 treatment-related AEs: Anemia: 12 (41) n (%)
  Grade ≥ 3 treatment-related AEs: Diarrhea: 1 (3) n (%)
  Grade ≥ 3 treatment-related AEs: Fatigue: 1 (3) n (%)
  Grade ≥ 3 treatment-related AEs: Febrile neutropenia: 6 (21) n (%)
  Grade ≥ 3 treatment-related AEs: Hemoglobin decreased: 2 (7) n (%)
  Grade ≥ 3 treatment-related AEs: Leukopenia: 3 (10) n (%)
  Grade ≥ 3 treatment-related AEs: Lymphopenia: 1 (3) n (%)
  Grade ≥ 3 treatment-related AEs: Nausea: 0 n (%)
  Grade ≥ 3 treatment-related AEs: Neutropenia: 17 (59) n (%)
  Grade ≥ 3 treatment-related AEs: Thrombocytopenia: 6 (21) n (%)
  Grade ≥ 3 treatment-related AEs: Vomiting: 1 (3) n (%)
  Grade ≥ 3 treatment-related AEs: White blood cell count decreased: 2 (7) n (%)
  Grade ≥ 4 AEs: 12 (41) n (%)
  Serious AEs: 14 (48) n (%)
[7]
  AEs leading to discontinuation of AMG 900: 5 (36) n (%)
  All treatment-emergent AEs: 14 (100) n (%)
  All treatment-related AEs: 13 (93) n (%)
  Fatal AEs: 3 (21) n (%)
  Grade ≥ 3 AEs: 11 (79) n (%)
  Grade ≥ 3 treatment-related AEs: 6 (43) n (%)
  Grade ≥ 3 treatment-related AEs: Anemia: 4 (29) n (%)
  Grade ≥ 3 treatment-related AEs: Diarrhea: 1 (7) n (%)
  Grade ≥ 3 treatment-related AEs: Fatigue: 0 n (%)
  Grade ≥ 3 treatment-related AEs: Febrile neutropenia: 1 (7) n (%)
  Grade ≥ 3 treatment-related AEs: Hemoglobin decreased: 0 n (%)
  Grade ≥ 3 treatment-related AEs: Leukopenia: 0 n (%)
  Grade ≥ 3 treatment-related AEs: Lymphopenia: 0 n (%)
  Grade ≥ 3 treatment-related AEs: Nausea: 1 (7) n (%)
  Grade ≥ 3 treatment-related AEs: Neutropenia: 4 (29) n (%)
  Grade ≥ 3 treatment-related AEs: Thrombocytopenia: 1 (7) n (%)
  Grade ≥ 3 treatment-related AEs: Vomiting: 0 n (%)
  Grade ≥ 3 treatment-related AEs: White blood cell count decreased: 0 n (%)
  Grade ≥ 4 AEs: 5 (36) n (%)
  Serious AEs: 7 (50) n (%)
